Patent US20060093553A1, “Cd26-based therapies for cancers and immune disease” (priority 2002, published 2006)

Legend:
[1] = molecular target: T1, M6P/IGF-IIR on monocytes (Homo sapiens, UniProt P11717); assay: Inhibition of sCD26 uptake into monocytes by M6P (FACS); type: cell-based; conditions: M6P 0, 0.1, 1.0, and 10 μM; concentration dependent; with or without TT; FIGS. 11A, 11B
T1 construct: endogenous in cells; host or cells: purified peripheral blood monocytes
Procedure: (§1) In studies assessing the expression of CD80, CD86, and HLA-DR on purified monocytes (0.5×10^6 monocytes/well), monocytes were preincubated with or without TT (0.5 μg/ml) for 16 h. Following incubation with sCD26 (0.5 μg/ml) for 24 h, FITC-conjugated CD80, CD86, and HLA-DR mAbs (10 μg/ml) were used with PE-conjugated anti-CD14 (10 μg/ml) to gate exclusively on the monocyte population. In experiments assessing the effect of M6P on cellular uptake of sCD26, purified monocytes (0.5×10^6 monocytes/well) were incubated with the appropriate concentration of M6P in the presence or absence of sCD26-OG for 24 h in standard medium. Cells were then washed twice in ice-cold PBS, followed by incubation for 2 min in acidic PBS (pH 3.0) to strip any sCD26-OG attached to the cell surface. Cells were washed in ice-cold PBS and were incubated with mouse Ig isotypes (1 μg/ml) to block nonspecific binding; this was followed by reaction with PE-conjugated anti-CD14 (10 μg/ml) to gate exclusively on monocyte population.

[2] = tested on: 340-4 mutant CD26-positive/DPPIV-positive Jurkat transfectant; assay: Cell cycle analysis (propidium iodide staining); type: cell-based, Human; conditions: 24 h, 340-4 transfectant
[3] = tested on: S630A Jurkat transfectants; assay: MTT uptake (cell growth) assay; type: cell-based, Human
Procedure: (§2) Cell growth assay was performed as described previously (Hansen et al., 1989). Cells were incubated in microplates in the presence of culture media alone, culture media and […] (50 μg/ml), culture media and doxorubicin at the indicated concentrations, or culture media, […]), and doxorubicin at the indicated concentrations, for a total volume of 100 μl (50,000 cells/well). After 48 h of incubation at 37° C., 25 μl of MTT was added to the wells at a final concentration of 1 mg/ml. The microplates were then incubated for 2 h at 37° C., followed by the addition of 100 μl of extraction buffer. After overnight incubation at 37° C., A570/nm measurements at 570 nm were performed, with the SE of the triplicate wells being less than 15%. MTT Assay. Cell growth assay was performed as described previously (Aytac et al., 2001). […] Following 36-48 h of incubation at 37° C., 25 ul of MET was added to the wells at a final concentration of 1 mg/ml. The microplates were then incubated for 2 h at 37° C., followed by the addition of 100 ul of extraction buffer. Following overnight incubation at 37° C., OD measurements at 570 nm were performed, with the standard errors of the mean of the triplicate wells being less than 15%. Cytotoxicity index was calculated as follows: [formula]

[4] = tested on: wtCD26 Jurkat transfectants; assay: MTT uptake (cell growth) assay; type: cell-based, Human
Procedure: as §2

[5] = tested on: 340-4 Jurkat transfectants; assay: MTT uptake (cell growth) assay; type: cell-based, Human; conditions: 340-4 transfectants, similar to wtCD26; 48 h; FIG. 1
[6] = tested on: 340-4 Jurkat transfectants; assay: Annexin V/PI apoptosis assay; type: cell-based, Human
Procedure: (§3) Annexin/PI Assays. Exposure of phosphatidylserine residues was quantified by surface annexin V staining as previously described (Vermes et al., 1995; […] and Pollard, 1994; Martin et al., 1995)). Briefly, cells were washed in binding buffer (10 mM HEPES, pH 7.4, 2.5 mM CaCl2, 140 mM NaCl), resuspended in 100 μl and incubated with 0.5 μl/ml annexin V-fluoresencein isothiocyanate (FITC) and 2.5 μg/ml propiodium iodide (PI) for 15 minutes in the dark. Cells were then washed again and resuspended in 400 μl of binding buffer, then flow cytometric analysis (FACScan; Becton Dickinson) was performed. Ten thousand cells were acquired per sample using Cellquest software and data were analyzed with the Paint-a-gate software (Becton Dickinson).

[7] = tested on: wtCD26 Jurkat transfectants; assay: Annexin V/PI apoptosis assay; type: cell-based, Human
Procedure: as §3

[8] = tested on: nontransfected control (parental) Jurkat cells; assay: Cell cycle analysis (propidium iodide staining); conditions: 24 h; for % G0/G1 / % G2/M / % S: Parental Jurkat; for Percentage G0G1 / Percentage G2/M / Percentage S: Control Jurkat
[9] = tested on: S630A mutant CD26-positive/DPPIV-negative Jurkat transfectant; assay: Cell cycle analysis (propidium iodide staining); conditions: 24 h
[10] = tested on: wild-type CD26-transfected Jurkat cell lines (wtCD26); assay: Cell cycle analysis (propidium iodide staining); conditions: 24 h; for % G0/G1 / % G2/M / % S: wtCD26 transfectant; for Percentage G0G1 / Percentage G2/M / Percentage S: WtCD26 transfectant
[11] = tested on: CD80 expression on monocytes; assay: Surface expression on monocytes (flow cytometry); type: cell-based, Human
Procedure: as §1
(§4) Flow cytometric analysis of 10,000 viable cells was conducted on FACSCalibur (BD Biosciences, Mountain View, Calif.). Each experiment was repeated at least three times, and the results were provided in the form of a histogram of a representative experiment, or increased mean percent±SE fluorescent intensity compared with control or untreated cells.

[12] = tested on: CD86 expression on monocytes; assay: Surface expression on monocytes (flow cytometry); type: cell-based, Human
Procedure: as §1, §4

[13] = tested on: HLA-DR expression on monocytes; assay: Surface expression on monocytes (flow cytometry); type: cell-based, Human
Procedure: as §1, §4

[14] = tested on: wtCD26 Jurkat transfectant; assay: Immunoblotting of etoposide-induced apoptosis markers after z-LEHD-fmk preincubation; type: cell-based, Human
Procedure: SDS-PAGE and Immunoblotting. After incubation at 37° C. in culture media and etoposide or doxorubicin at the concentrations and duration indicated, cells were harvested from wells, washed with PBS, and lysed in lysis buffer consisting of 1% NP-40, 0.5% deotxycolate, 0.1% SDS, 1 mM phenyhmethylsulfonyl fluoride, 1 mM benzamidine, 10 μg/ml aprotinin, 50 μg/ml leupeptin, 10 μg/ml soybean trypsin inhibitor and 1 μg/ml pepstatin. After incubating on ice for 5 min, nuclei were removed by centrifugation and supernatants were collected as whole cell lysates. Sample buffer (4×) consisting of 20% glycerol, 4.6% SDS, 0.5 M Tris (pH 6.8), 4% β-mercaptoethanol, and 0.2% bromophenol blue was added to the appropriate aliquots of supernatants. After boiling, protein samples were submitted to SDS-PAGE analysis on an 8% gel under standard conditions using a mini-Protean II system (Bio-Rad). For immunoblotting, the proteins were transferred onto nitrocellulobse (Immobilon-P; Millipore). After overnight. blocking at 4° C. in blocking solution consisting of 0.1% Tween 20 and 5% BSA in Tris-buffered saline, membranes were blotted with the appropriate primary antibodies diluted in blocking solution for 1 hour at room temperature. Membranes were then washed with blocking solution, and appropriate secondary antibodies diluted in blocking solution were then applied for 1 hour at room temperature. Secondary antibodies were goat antimouse or goat antirabbit horseradish peroxidase conjugates (Dako). Membranes were then washed with blocking solution, and proteins were subsequently detected by chemiluininescence (Amersham Pharmacia Biotech).

[15] = AIM V serum-free media, Doxorubicin 0.10 uM
[16] = AIM V serum-free media, Doxorubicin 0.25 uM
[17] = Doxorubicin 0.01 μM, S63A transfectant
[18] = Doxorubicin 0.05 μM, S630A transfectant
[19] = 2 hours preincubation with z-LEHD-fmk, then 3 μM etoposide 48 hours, FIG. 22B
[20] = AIM V serum-free media, Etoposide 0.25 uM
[21] = AIM V serum-free media, Etoposide 0.50 uM
[22] = Etoposide 0.10 uM, S630A transfectant
[23] = Etoposide 0.25 uM, S630A transfectant

T1 sequence (P11717 41-2491): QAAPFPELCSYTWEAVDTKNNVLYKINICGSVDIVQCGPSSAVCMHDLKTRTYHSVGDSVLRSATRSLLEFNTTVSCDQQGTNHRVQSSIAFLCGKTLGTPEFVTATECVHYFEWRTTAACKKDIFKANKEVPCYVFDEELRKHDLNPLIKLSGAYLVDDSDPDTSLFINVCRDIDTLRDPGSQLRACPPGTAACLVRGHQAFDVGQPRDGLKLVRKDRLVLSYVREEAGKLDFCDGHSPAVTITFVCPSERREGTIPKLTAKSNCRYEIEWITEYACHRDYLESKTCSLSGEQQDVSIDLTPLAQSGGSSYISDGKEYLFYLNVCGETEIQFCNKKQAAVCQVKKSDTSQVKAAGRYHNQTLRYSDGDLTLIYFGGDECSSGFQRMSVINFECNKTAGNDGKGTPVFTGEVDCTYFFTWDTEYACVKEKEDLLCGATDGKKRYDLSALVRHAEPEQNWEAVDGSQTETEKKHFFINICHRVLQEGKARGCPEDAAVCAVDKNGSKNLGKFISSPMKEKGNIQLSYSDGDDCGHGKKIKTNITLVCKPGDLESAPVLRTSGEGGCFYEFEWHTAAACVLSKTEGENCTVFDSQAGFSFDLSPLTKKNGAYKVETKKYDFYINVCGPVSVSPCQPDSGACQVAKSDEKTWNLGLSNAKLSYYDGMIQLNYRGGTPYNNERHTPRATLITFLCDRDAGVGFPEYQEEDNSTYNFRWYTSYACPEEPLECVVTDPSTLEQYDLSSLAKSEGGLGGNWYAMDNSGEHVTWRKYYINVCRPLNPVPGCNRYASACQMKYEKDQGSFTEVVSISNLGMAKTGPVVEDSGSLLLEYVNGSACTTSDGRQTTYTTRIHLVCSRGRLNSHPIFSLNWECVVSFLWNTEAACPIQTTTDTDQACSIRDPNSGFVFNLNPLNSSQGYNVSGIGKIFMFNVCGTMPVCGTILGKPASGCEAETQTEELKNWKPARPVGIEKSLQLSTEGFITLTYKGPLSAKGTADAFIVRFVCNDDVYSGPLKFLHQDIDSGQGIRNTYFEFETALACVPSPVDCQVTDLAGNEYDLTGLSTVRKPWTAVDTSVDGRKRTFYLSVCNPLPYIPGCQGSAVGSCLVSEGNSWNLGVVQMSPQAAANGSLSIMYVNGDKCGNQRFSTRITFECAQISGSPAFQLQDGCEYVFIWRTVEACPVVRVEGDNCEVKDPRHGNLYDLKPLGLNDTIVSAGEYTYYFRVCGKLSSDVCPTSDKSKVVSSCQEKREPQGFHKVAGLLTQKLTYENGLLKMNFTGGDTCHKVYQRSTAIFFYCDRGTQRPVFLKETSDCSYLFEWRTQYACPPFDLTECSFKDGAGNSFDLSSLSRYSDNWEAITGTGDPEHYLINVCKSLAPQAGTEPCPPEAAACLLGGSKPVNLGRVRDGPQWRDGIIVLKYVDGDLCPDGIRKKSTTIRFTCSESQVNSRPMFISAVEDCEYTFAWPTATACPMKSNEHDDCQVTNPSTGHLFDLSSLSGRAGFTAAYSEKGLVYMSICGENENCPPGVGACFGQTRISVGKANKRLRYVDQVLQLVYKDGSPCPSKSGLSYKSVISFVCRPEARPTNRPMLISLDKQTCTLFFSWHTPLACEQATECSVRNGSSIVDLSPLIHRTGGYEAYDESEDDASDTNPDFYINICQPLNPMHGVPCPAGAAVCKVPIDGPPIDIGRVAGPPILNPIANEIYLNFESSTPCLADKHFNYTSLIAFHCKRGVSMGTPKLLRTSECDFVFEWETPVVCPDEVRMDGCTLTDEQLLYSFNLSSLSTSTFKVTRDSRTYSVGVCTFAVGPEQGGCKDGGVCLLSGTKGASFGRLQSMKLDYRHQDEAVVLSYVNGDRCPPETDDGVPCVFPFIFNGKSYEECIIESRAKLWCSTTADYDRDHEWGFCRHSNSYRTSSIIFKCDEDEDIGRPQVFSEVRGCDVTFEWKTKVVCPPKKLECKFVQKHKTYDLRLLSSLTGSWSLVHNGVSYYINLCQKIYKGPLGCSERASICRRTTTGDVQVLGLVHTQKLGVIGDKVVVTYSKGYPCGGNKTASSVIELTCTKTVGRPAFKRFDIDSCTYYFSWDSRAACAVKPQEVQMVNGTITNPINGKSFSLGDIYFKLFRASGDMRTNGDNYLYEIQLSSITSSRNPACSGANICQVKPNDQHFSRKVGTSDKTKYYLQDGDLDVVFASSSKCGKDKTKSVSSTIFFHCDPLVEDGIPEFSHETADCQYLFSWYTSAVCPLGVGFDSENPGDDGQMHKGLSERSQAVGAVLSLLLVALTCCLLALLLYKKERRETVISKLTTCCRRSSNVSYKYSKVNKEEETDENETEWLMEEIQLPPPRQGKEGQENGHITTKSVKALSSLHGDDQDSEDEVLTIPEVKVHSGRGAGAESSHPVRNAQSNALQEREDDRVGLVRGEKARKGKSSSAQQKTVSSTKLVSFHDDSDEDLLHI

O=P(O)(O)OC[C@H]1OC(O)[C@@H](O)[C@@H](O)[C@@H]1O (some centres unmarked) [M6P]
uptake of sCD26 into monocytes [1]: inhibited the uptake of sCD26 into monocytes

COc1cccc2c1C(=O)c1c(O)c3c(c(O)c1C2=O)C[C@@](O)(C(=O)CO)C[C@@H]3O[C@H]1C[C@H](N)[C@H](O)[C@H](C)O1 [Doxorubicin]
Percentage G0G1 ([2]; Doxorubicin 0.01 μM): 25%
Percentage G2/M ([2]; Doxorubicin 0.01 μM): 50%
Percentage S ([2]; Doxorubicin 0.01 μM): 25%
Percentage G0G1 ([2]; Doxorubicin 0.05 μM): 11%
Percentage G2/M ([2]; Doxorubicin 0.05 μM): 78%
Percentage S ([2]; Doxorubicin 0.05 μM): 11%
doxorubicin-mediated growth inhibition (MTT), sensitivity ([3]; S630A transfectants, 48 h, FIG. 1): less sensitive
doxorubicin-mediated growth inhibition (MTT), sensitivity ([4]; wtCD26 compared with parental (control) or vector only (neo) Jurkat cells, 48 h, FIG. 1): markedly increased sensitivity
doxorubicin-mediated growth inhibition (MTT), sensitivity [5]: greater doxorubicin sensitivity
doxorubicin-induced apoptosis (Annexin V/PI) ([6]; 340-4 compared with parental or S630A Jurkat, 16 hours, FIG. 15B): greater apoptosis
doxorubicin-induced apoptosis (Annexin V/PI) ([7]; wtCD26 compared with parental or S630A Jurkat, 16 hours, FIG. 15B): greater apoptosis
% G0/G1 [8, 15]: 43%
% G2/M [8, 15]: 27%
% S [8, 15]: 30%
% G0/G1 [8, 16]: 36%
% G2/M [8, 16]: 41%
% S [8, 16]: 23%
Percentage G0G1 ([8]; Doxorubicin 0.01 μM): 40%
Percentage G2/M ([8]; Doxorubicin 0.01 μM): 34%
Percentage S ([8]; Doxorubicin 0.01 μM): 26%
Percentage G0G1 ([8]; Doxorubicin 0.05 μM): 32%
Percentage G2/M ([8]; Doxorubicin 0.05 μM): 37%
Percentage S ([8]; Doxorubicin 0.05 μM): 31%
Percentage G0G1 [9, 17]: 33%
Percentage G2/M [9, 17]: 35%
Percentage S [9, 17]: 32%
Percentage G0G1 [9, 18]: 27%
Percentage G2/M [9, 18]: 38%
Percentage S [9, 18]: 35%
% G0/G1 [10, 15]: 31%
% G2/M [10, 15]: 49%
% S [10, 15]: 20%
% G0/G1 [10, 16]: 14%
% G2/M [10, 16]: 74%
% S [10, 16]: 12%
Percentage G0G1 ([10]; Doxorubicin 0.01 μM): 11%
Percentage G2/M ([10]; Doxorubicin 0.01 μM): 62%
Percentage S ([10]; Doxorubicin 0.01 μM): 27%
Percentage G0G1 ([10]; Doxorubicin 0.05 μM): 6%
Percentage G2/M ([10]; Doxorubicin 0.05 μM): 69%
Percentage S ([10]; Doxorubicin 0.05 μM): 25%

TT: recall antigen tetanus toxoid
% Increase of CD80 expression on monocytes [11]: 2.0 ± 0.4%
% Increase of CD86 expression on monocytes [12]: 1.2 ± 2%
% Increase of HLA-DR expression on monocytes [13]: 0.3 ± 0.2%

z-LEHD-fmk
etoposide-mediated cleavage of pro-caspase-9 ([14]; 2 hours preincubation with z-LEHD-fmk at varying doses, then 3 μM etoposide 16 hours, FIG. 18): inhibited by z-LEHD-fink in dose-dependent manner
cleavage of pro-caspase-3 and PARP ([14]; 2 hours preincubation with z-LEHD-fmk, then 3 μM etoposide 16 hours, FIG. 18): significantly reduced
etoposide-induced 32 kDa DR5 band [14, 19]: no longer detectable
etoposide-induced increase in the 58 kDa DR5 band [14, 19]: significantly attenuated

COc1cc([C@@H]2c3cc4c(cc3[C@@H](O[C@@H]3O[C@@H]5CO[C@@H](C)O[C@H]5[C@H](O)[C@H]3O)[C@H]3COC(=O)[C@H]23)OCO4)cc(OC)c1O [Etoposide]
etoposide-mediated growth inhibition (MTT), sensitivity ([3]; S630A compared to wtCD26 transfectants, FIG. 5): less sensitive
etoposide-mediated growth inhibition (MTT), sensitivity ([4]; wtCD26 compared to parental cells, FIG. 5): significantly increased sensitivity
etoposide-induced apoptosis (Annexin V/PI) ([6]; 340-4 transfectants, similar to wtCD26, 14 hours, FIG. 15A): higher level of drug-induced apoptosis
etoposide-induced apoptosis (Annexin V/PI) ([7]; wtCD26 vs S630A or parental control Jurkat, 14 hours, FIG. 15A): more sensitive to the apoptotic effect
% G0/G1 [8, 20]: 51%
% G2/M [8, 20]: 19%
% S [8, 20]: 30%
% G0/G1 [8, 21]: 36%
% G2/M [8, 21]: 36%
% S [8, 21]: 28%
% G0/G1 ([8]; Etoposide 0.10 uM): 41%
% G2/M ([8]; Etoposide 0.10 uM): 21%
% S ([8]; Etoposide 0.10 uM): 38%
% G0/G1 ([8]; Etoposide 0.25 uM): 27%
% G2/M ([8]; Etoposide 0.25 uM): 41%
% S ([8]; Etoposide 0.25 uM): 32%
% G0/G1 [9, 22]: 34%
% G2/M [9, 22]: 29%
% S [9, 22]: 37%
% G0/G1 [9, 23]: 22%
% G2/M [9, 23]: 48%
% S [9, 23]: 30%
% G0/G1 [10, 20]: 34%
% G2/M [10, 20]: 43%
% S [10, 20]: 23%
% G0/G1 [10, 21]: 18%
% G2/M [10, 21]: 64%
% S [10, 21]: 18%
% G0/G1 ([10]; Etoposide 0.10 uM): 25%
% G2/M ([10]; Etoposide 0.10 uM): 56%
% S ([10]; Etoposide 0.10 uM): 19%
% G0/G1 ([10]; Etoposide 0.25 uM): 12%
% G2/M ([10]; Etoposide 0.25 uM): 69%
% S ([10]; Etoposide 0.25 uM): 19%
